Laboratory results reported in ChEMBL document CHEMBL3046544, “Inhibitory Activity of N-Substituted-2-piperidones with a 1, 4-Benzodioxan Ring on Germination of Barnyardgrass” (J Pestic Sci, 2001).

Key:
Assay type in all cases: functional
Details in all cases: 120 h
Echinochloa esculenta [1] = experiment: Herbicidal activity against Echinochloa esculenta assessed as inhibition of seed germination at 1000 nM after 5 days relative to control
Echinochloa esculenta [2] = experiment: Herbicidal activity against Echinochloa esculenta assessed as inhibition of seed germination at 100 nM after 5 days relative to control
Echinochloa esculenta [3] = experiment: Herbicidal activity against Echinochloa esculenta assessed as inhibition of seed germination at 1 nM after 5 days relative to control
Echinochloa esculenta [4] = experiment: Herbicidal activity against Echinochloa esculenta assessed as inhibition of seed germination at 10 nM after 5 days relative to control

| Structure (SMILES) | inhibition at 1 µM (Echinochloa esculenta [1]) | inhibition at 0.1 µM (Echinochloa esculenta [2]) | inhibition at 0.001 µM (Echinochloa esculenta [3]) | inhibition at 0.01 µM (Echinochloa esculenta [4]) |
| --- | --- | --- | --- | --- |
| COc1cccc(C(O)C2CCCN(Cc3ccccc3)C2=O)c1 (mixture of isomers) | < 49% | < 49% | < 49% | < 49% |
| O=C1C(C(O)c2ccncc2)CCCN1Cc1ccccc1 (mixture of isomers) | < 49% | < 49% | < 49% | < 49% |
| O=C1C(C(O)c2ccc3c(c2)OCC(c2ccccc2)O3)CCCN1Cc1ccccc1 (mixture of isomers) | < 49% | < 49% | < 49% | < 49% |
| COc1c(C(O)C2CCCN(Cc3ccccc3)C2=O)ccc2c1OCCO2 (mixture of isomers) | > 90% | < 49% | < 49% | < 49% |
| O=C1C(C(O)c2cccnc2)CCCN1Cc1ccccc1 (mixture of isomers) | 50% | < 49% | < 49% | < 49% |
| O=C1C(C(O)c2cnc3ccccc3c2)CCCN1Cc1ccccc1 (mixture of isomers) | < 49% | < 49% | < 49% | < 49% |
| COCC1COc2cc(C(O)C3CCCN(Cc4ccccc4)C3=O)ccc2O1 (mixture of isomers) | > 90% | > 90% | < 49% | < 49% |
| O=C1C(C(O)c2ccc(Oc3ccccc3)cc2)CCCN1Cc1ccccc1 (mixture of isomers) | < 49% | < 49% | < 49% | < 49% |
| O=C1C(C(O)c2ccc(Cl)cc2Cl)CCCN1Cc1ccccc1 (mixture of isomers) | 50% | < 49% | < 49% | < 49% |
| O=C1C(C(O)c2ccc(Cl)c(Cl)c2)CCCN1Cc1ccccc1 (mixture of isomers) | 50% | < 49% | < 49% | < 49% |
| O=C1C(C(O)c2ccc3ccccc3c2)CCCN1Cc1ccccc1 (mixture of isomers) | < 49% | < 49% | < 49% | < 49% |
| COc1ccc(C(O)C2CCCN(Cc3ccccc3)C2=O)c(OC)c1 (mixture of isomers) | < 49% | < 49% | < 49% | < 49% |
| O=C1C(C(O)c2ccc3ccccc3n2)CCCN1Cc1ccccc1 (mixture of isomers) | > 90% | < 49% | < 49% | < 49% |
| O=C1C(C(O)c2ccc3c(c2)OCO3)CCCN1Cc1ccccc1 (mixture of isomers) | < 49% | < 49% | < 49% | < 49% |
| O=C1C(C(O)c2ccc3c(c2)OCC(COCc2ccccc2)O3)CCCN1Cc1ccccc1 (mixture of isomers) | > 90% | 50% | < 49% | < 49% |
| O=C1C(C(O)C2CCCCC2)CCCN1Cc1ccccc1 (mixture of isomers) | < 49% | < 49% | < 49% | < 49% |
| O=C1C(C(O)c2ccccc2C(F)(F)F)CCCN1Cc1ccccc1 (mixture of isomers) | 50% | < 49% | < 49% | < 49% |
| O=C1C(C(O)c2cccc3ccccc23)CCCN1Cc1ccccc1 (mixture of isomers) | < 49% | < 49% | < 49% | < 49% |
| O=C1C(C(O)c2ccc(O)cc2)CCCN1Cc1ccccc1 (mixture of isomers) | 50% | < 49% | < 49% | < 49% |
| O=C1C(C(O)c2cccc(Oc3ccccc3)c2)CCCN1Cc1ccccc1 (mixture of isomers) | 50% | < 49% | < 49% | < 49% |
| O=C1C(C(O)c2ccc(Cl)cc2)CCCN1Cc1ccccc1 (mixture of isomers) | > 90% | 50% | < 49% | < 49% |
| Cc1ccc(C(O)C2CCCN(Cc3ccccc3)C2=O)cc1 (mixture of isomers) | > 90% | < 49% | < 49% | < 49% |
| CCOCC1COc2cc(C(O)C3CCCN(Cc4ccccc4)C3=O)ccc2O1 (mixture of isomers) | 50% | 50% | < 49% | < 49% |

| Structure (SMILES) | inhibition at 1 µM (Echinochloa esculenta [1]) | inhibition at 0.1 µM (Echinochloa esculenta [2]) | inhibition at 0.001 µM (Echinochloa esculenta [3]) | inhibition at 0.01 µM (Echinochloa esculenta [4]) |
| --- | --- | --- | --- | --- |
| O=C1C(C(O)c2ccc(C(F)(F)F)cc2)CCCN1Cc1ccccc1 (mixture of isomers) | 50% | < 49% | < 49% | < 49% |
| O=C1C(C(O)c2ccccc2Cl)CCCN1Cc1ccccc1 (mixture of isomers) | > 90% | < 49% | < 49% | < 49% |
| CCCCCCC(O)C1CCCN(Cc2ccccc2)C1=O (centres undefined) | > 90% | 50% | < 49% | < 49% |
| O=C1C(C(O)c2ccccn2)CCCN1Cc1ccccc1 (mixture of isomers) | < 49% | < 49% | < 49% | < 49% |
| O=C1C(C(O)c2ccnc3ccccc23)CCCN1Cc1ccccc1 (mixture of isomers) | > 90% | < 49% | < 49% | < 49% |
| O=C1C(C(O)c2ccc3c(c2)OCCO3)CCCCN1C/C=C/c1ccccc1 (mixture of isomers) | > 90% | < 49% | < 49% | < 49% |
| O=C1C(C(O)c2ccccc2)CCCN1Cc1ccccc1 (mixture of isomers) | > 90% | < 49% | < 49% | < 49% |
| O=C1C(C(O)c2ccc3c(c2)OCCO3)CCN1C/C=C/c1ccccc1 (mixture of isomers) | > 90% | < 49% | < 49% | < 49% |
| O=C1C(C(O)c2cccc(O)c2)CCCN1Cc1ccccc1 (mixture of isomers) | 50% | < 49% | < 49% | < 49% |
| O=C1C(C(O)c2cccc([N+](=O)[O-])c2)CCCN1Cc1ccccc1 (mixture of isomers) | 50% | < 49% | < 49% | < 49% |
| COc1ccc(C(O)C2CCCN(Cc3ccccc3)C2=O)cc1OC (mixture of isomers) | > 90% | 50% | < 49% | < 49% |
| COc1ccccc1C(O)C1CCCN(Cc2ccccc2)C1=O (mixture of isomers) | 50% | < 49% | < 49% | < 49% |
| Cc1ccccc1C(O)C1CCCN(Cc2ccccc2)C1=O (mixture of isomers) | > 90% | < 49% | < 49% | < 49% |
| O=C1C(C(O)c2cccc(C(F)(F)F)c2)CCCN1Cc1ccccc1 (centres undefined) | 50% | 50% | < 49% | < 49% |
| O=C1C(C(O)c2ccc([N+](=O)[O-])cc2)CCCN1Cc1ccccc1 (mixture of isomers) | 50% | < 49% | < 49% | < 49% |
| O=C1C(C(O)c2ccc(O)c(O)c2)CCCN1Cc1ccccc1 (mixture of isomers) | 50% | < 49% | < 49% | < 49% |
| O=C1C(C(O)c2cccc(Cl)c2)CCCN1Cc1ccccc1 (mixture of isomers) | > 90% | < 49% | < 49% | < 49% |
| COc1cc(C(O)C2CCCN(Cc3ccccc3)C2=O)cc2c1OCCO2 (mixture of isomers) | 50% | < 49% | < 49% | < 49% |
| Cc1cccc(C(O)C2CCCN(Cc3ccccc3)C2=O)c1 (mixture of isomers) | > 90% | < 49% | < 49% | < 49% |
| O=C1C(C(O)c2ccc3c(c2)OCCO3)Cc2ccccc2N1C/C=C/c1ccccc1 (mixture of isomers) | < 49% | < 49% | < 49% | < 49% |
| O=C1C(C(O)c2ccccc2[N+](=O)[O-])CCCN1Cc1ccccc1 (mixture of isomers) | 50% | < 49% | < 49% | < 49% |
| COc1cc2c(cc1C(O)C1CCCN(Cc3ccccc3)C1=O)OCCO2 (mixture of isomers) | 50% | 50% | < 49% | < 49% |
| CC(C)C(O)C1CCCN(Cc2ccccc2)C1=O (mixture of isomers) | < 49% | < 49% | < 49% | < 49% |
